Laboratory results: PubChem BioAssay (NCI)
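All cell lines were grown in 96-well plates and treated with compound for 48 hours. At the GI50, growth is halved. At the TGI there is no net growth.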

How the values were obtained:
Assay in all cases: growth of human tumour cells (NCI), 48 h
786-0 renal = tested on: 786-0 renal
A498 renal = tested on: A498 renal
A549 NSCLC = tested on: A549 NSCLC
ACHN renal = tested on: ACHN renal
BT-549 breast = tested on: BT-549 breast
CAKI-1 renal = tested on: CAKI-1 renal
CCRF-CEM leukemia = tested on: CCRF-CEM leukemia
COLO 205 colon = tested on: COLO 205 colon
DU-145 prostate = tested on: DU-145 prostate
EKVX NSCLC = tested on: EKVX NSCLC
HCC-2998 colon = tested on: HCC-2998 colon
HCT-116 colon = tested on: HCT-116 colon
HCT-15 colon = tested on: HCT-15 colon
HL-60(TB) leukemia = tested on: HL-60(TB) leukemia
HOP-62 NSCLC = tested on: HOP-62 NSCLC
HOP-92 NSCLC = tested on: HOP-92 NSCLC
HS 578T breast = tested on: HS 578T breast
HT29 colon = tested on: HT29 colon
IGROV1 ovarian = tested on: IGROV1 ovarian
K-562 leukemia = tested on: K-562 leukemia
KM12 colon = tested on: KM12 colon
LOX IMVI melanoma = tested on: LOX IMVI melanoma
M14 melanoma = tested on: M14 melanoma
MALME-3M melanoma = tested on: MALME-3M melanoma
MCF7 breast = tested on: MCF7 breast
MDA-MB-231 breast = tested on: MDA-MB-231 breast
MDA-MB-435 = tested on: MDA-MB-435
MOLT-4 leukemia = tested on: MOLT-4 leukemia
NCI-H226 lung = tested on: NCI-H226 lung
NCI-H23 lung = tested on: NCI-H23 lung
NCI-H460 lung = tested on: NCI-H460 lung
NCI-H522 lung = tested on: NCI-H522 lung
NCI/ADR-RES ovarian = tested on: NCI/ADR-RES ovarian
OVCAR-3 ovarian = tested on: OVCAR-3 ovarian
OVCAR-4 ovarian = tested on: OVCAR-4 ovarian
OVCAR-5 ovarian = tested on: OVCAR-5 ovarian
OVCAR-8 ovarian = tested on: OVCAR-8 ovarian
PC-3 prostate = tested on: PC-3 prostate
RPMI-8226 leukemia = tested on: RPMI-8226 leukemia
RXF 393 renal = tested on: RXF 393 renal
SF-268 CNS = tested on: SF-268 CNS
SF-295 CNS = tested on: SF-295 CNS
SF-539 CNS = tested on: SF-539 CNS
SK-MEL-2 melanoma = tested on: SK-MEL-2 melanoma
SK-MEL-28 melanoma = tested on: SK-MEL-28 melanoma
SK-MEL-5 melanoma = tested on: SK-MEL-5 melanoma
SK-OV-3 ovarian = tested on: SK-OV-3 ovarian
SN12C renal = tested on: SN12C renal
SNB-19 CNS = tested on: SNB-19 CNS
SNB-75 CNS = tested on: SNB-75 CNS
SW-620 colon = tested on: SW-620 colon
T-47D breast = tested on: T-47D breast
TK-10 renal = tested on: TK-10 renal
U251 CNS = tested on: U251 CNS
UACC-257 melanoma = tested on: UACC-257 melanoma
UACC-62 melanoma = tested on: UACC-62 melanoma
UO-31 renal = tested on: UO-31 renal

In the case of `COc1cc(C(=O)N2N=C(c3ccc(S(C)(=O)=O)cc3)CC2c2ccco2)cc(OC)c1OC` (centres undefined), the GI50 (786-0 renal) is reported as 8.51 µM, the TGI (786-0 renal) is reported as greater than 100 µM and the GI50 (A498 renal) is reported as 5.15 µM. It also gave a TGI (A498 renal) greater than 100 µM, a GI50 (A549 NSCLC) of 6.92 µM and a TGI (A549 NSCLC) greater than 100 µM. For the same compound, the GI50 (ACHN renal) was 5.76 µM, the TGI (ACHN renal) was greater than 100 µM and the GI50 (BT-549 breast) was 5.2 µM. For the same compound, the TGI (BT-549 breast) was greater than 71.7 µM, the GI50 (CAKI-1 renal) was 4.94 µM and the TGI (CAKI-1 renal) was greater than 90.8 µM. The GI50 (CCRF-CEM leukemia) was 2.5 µM, the TGI (CCRF-CEM leukemia) was greater than 25.4 µM and the GI50 (COLO 205 colon) was 2.27 µM. For the same compound, the TGI (COLO 205 colon) was 10.1 µM, the GI50 (DU-145 prostate) was 7.04 µM and the TGI (DU-145 prostate) was greater than 78.1 µM. The GI50 (EKVX NSCLC) was 21.3 µM, the TGI (EKVX NSCLC) was greater than 100 µM and the GI50 (HCC-2998 colon) was 21 µM. It also gave a TGI (HCC-2998 colon) greater than 100 µM, a GI50 (HCT-116 colon) of 3.77 µM and a TGI (HCT-116 colon) greater than 100 µM. The GI50 (HCT-15 colon) was 4.13 µM, the TGI (HCT-15 colon) was greater than 100 µM and the GI50 (HL-60(TB) leukemia) was 1.41 µM. The TGI (HL-60(TB) leukemia) was 4.47 µM, the GI50 (HOP-62 NSCLC) was 26.7 µM and the TGI (HOP-62 NSCLC) was greater than 100 µM. For the same compound, the GI50 (HOP-92 NSCLC) was 3.65 µM, the TGI (HOP-92 NSCLC) was greater than 100 µM and the GI50 (HS 578T breast) was 5.42 µM. For the same compound, the TGI (HS 578T breast) was greater than 100 µM, the GI50 (HT29 colon) was 3.17 µM and the TGI (HT29 colon) was greater than 100 µM. For the same compound, the GI50 (IGROV1 ovarian) was 5.4 µM, the TGI (IGROV1 ovarian) was greater than 100 µM and the GI50 (K-562 leukemia) was 4.81 µM. For the same compound, the TGI (K-562 leukemia) was greater than 100 µM, the GI50 (KM12 colon) was 3.51 µM and the TGI (KM12 colon) was greater than 100 µM. It also gave a GI50 (LOX IMVI melanoma) of 5.85 µM, a TGI (LOX IMVI melanoma) greater than 100 µM and a GI50 (M14 melanoma) of 5.81 µM. The TGI (M14 melanoma) was greater than 87.6 µM, the GI50 (MALME-3M melanoma) was 5.01 µM and the TGI (MALME-3M melanoma) was greater than 100 µM. The GI50 (MCF7 breast) was 2.89 µM, the TGI (MCF7 breast) was greater than 100 µM and the GI50 (MDA-MB-231 breast) was 11.2 µM. The TGI (MDA-MB-231 breast) was greater than 100 µM, the GI50 (MDA-MB-435) was 1.27 µM and the TGI (MDA-MB-435) was 7.27 µM. For the same compound, the GI50 (MOLT-4 leukemia) was 3.08 µM, the TGI (MOLT-4 leukemia) was greater than 100 µM and the GI50 (NCI-H226 lung) was greater than 57.3 µM. For the same compound, the TGI (NCI-H226 lung) was greater than 100 µM, the GI50 (NCI-H23 lung) was 15.2 µM and the TGI (NCI-H23 lung) was greater than 100 µM. It also gave a GI50 (NCI-H460 lung) of 3.51 µM, a TGI (NCI-H460 lung) greater than 100 µM and a GI50 (NCI-H522 lung) of 3.95 µM. It also gave a TGI (NCI-H522 lung) greater than 61.6 µM, a GI50 (NCI/ADR-RES ovarian) of 6.04 µM and a TGI (NCI/ADR-RES ovarian) greater than 67.7 µM. It also gave a GI50 (OVCAR-3 ovarian) of 1.95 µM, a TGI (OVCAR-3 ovarian) of 5.46 µM and a GI50 (OVCAR-4 ovarian) of 7.45 µM. The TGI (OVCAR-4 ovarian) was greater than 100 µM, the GI50 (OVCAR-5 ovarian) was greater than 80.2 µM and the TGI (OVCAR-5 ovarian) was greater than 100 µM. For the same compound, the GI50 (OVCAR-8 ovarian) was 20.2 µM, the TGI (OVCAR-8 ovarian) was greater than 100 µM and the GI50 (PC-3 prostate) was 2.93 µM. It also gave a TGI (PC-3 prostate) greater than 100 µM, a GI50 (RPMI-8226 leukemia) of 0.647 µM and a TGI (RPMI-8226 leukemia) of 4.36 µM. For the same compound, the GI50 (RXF 393 renal) was 4.74 µM, the TGI (RXF 393 renal) was 56 µM and the GI50 (SF-268 CNS) was 8.93 µM. It also gave a TGI (SF-268 CNS) greater than 100 µM, a GI50 (SF-295 CNS) of 3.04 µM and a TGI (SF-295 CNS) greater than 100 µM. The GI50 (SF-539 CNS) was 3.12 µM, the TGI (SF-539 CNS) was 17.4 µM and the GI50 (SK-MEL-2 melanoma) was 8.68 µM. The TGI (SK-MEL-2 melanoma) was greater than 100 µM, the GI50 (SK-MEL-28 melanoma) was 22.2 µM and the TGI (SK-MEL-28 melanoma) was greater than 100 µM. It also gave a GI50 (SK-MEL-5 melanoma) of 2.99 µM, a TGI (SK-MEL-5 melanoma) greater than 63.2 µM and a GI50 (SK-OV-3 ovarian) of 4.9 µM. It also gave a TGI (SK-OV-3 ovarian) greater than 100 µM, a GI50 (SN12C renal) of 12.3 µM and a TGI (SN12C renal) greater than 100 µM. The GI50 (SNB-19 CNS) was 5.92 µM, the TGI (SNB-19 CNS) was greater than 100 µM and the GI50 (SNB-75 CNS) was 2.91 µM. It also gave a TGI (SNB-75 CNS) greater than 46 µM, a GI50 (SW-620 colon) of 3.62 µM and a TGI (SW-620 colon) greater than 100 µM. The GI50 (T-47D breast) was 3.79 µM, the TGI (T-47D breast) was greater than 100 µM and the GI50 (TK-10 renal) was 29 µM. The TGI (TK-10 renal) was greater than 100 µM, the GI50 (U251 CNS) was 5.09 µM and the TGI (U251 CNS) was greater than 100 µM. For the same compound, the GI50 (UACC-257 melanoma) was greater than 100 µM, the TGI (UACC-257 melanoma) was greater than 100 µM and the GI50 (UACC-62 melanoma) was 3.82 µM. The TGI (UACC-62 melanoma) was greater than 100 µM, the GI50 (UO-31 renal) was 7.23 µM and the TGI (UO-31 renal) was greater than 100 µM.
